Experimental data published in US11649220B2 (DEMOTECH.INC., priority 2018, dated 2023).

Key:
[1] = tested on: golden hamsters (high-fat food, STZ induced); experiment: Golden hamster disease model, animal model induction group (24-week-old group): blood biochemical indexes and body weight; type: in vivo; details: for change rate of blood glucode %: 0.1 mL of 6.8 mg/mL DMSO solution + 0.25 mL whole milk by gavage once a day for 2 weeks; for change rate of body weight after deduction of DMSO blank %: DMSO blank deducted; for change of body weight/g / change rate of body weight %: after gavage once a day for 2 weeks; for HDL % / LDL % / total cholesterol % / triglyceride %: change rate, gavage once a day for 2 weeks; for average body weight at 24 weeks/g: initial weight before administration
Excerpt: (§1) Animals and feed: 1) 8-week-old male golden hamsters with a body weight range of 100±5 g were selected; 2) 60% high-fat food; 3) 30% high-fat food; 4) general feed: NRC standard feed, containing 5% fat, total calories 4200 kcal/kg.
Animal model induction group (24-week-old group): After STZ induction, the golden hamsters were continuous fed with 30% high-fat food for 8 weeks, blood was taken from the ocular venous plexus, and the initial body weight, blood glucose concentration, total cholesterol, LDL-c, HDL-c and triglyceride were measured, and the golden hamsters were grouped in parallel according to animal biochemical indicators, 8 in each group; 5) Gavage of compounds: 0.1 mL of solution of compound (concentration: 6.8 mg/mL, DMSO solution) and 0.25 mL of whole milk were mixed evenly and administrated by gavage once a day for 2 weeks; 6) Blank control: 0.1 mL of DMSO and 0.25 mL of whole milk were mixed and administrated by gavage, once a day for 2 weeks; 6) Blank control: 0.1 mL of DMSO were mixed with 0.25 mL of whole milk, and administrated by gavage, once a day for 2 weeks; 7) 14 days later, blood was taken from the ocular venous plexus, and the body weight, blood glucose, total cholesterol, LDL-c, HDL-c and triglyceride were measured.
(§2) Instruments: Shimadzu UV-1750 spectrophotometer, clinical determination kit (Changchun Huili Biotechnology Co., Ltd.)
(§3) Determination of blood glucose: glucose oxidase method, kit
(§4) Determination of total cholesterol (COD-PAP method), kit
(§5) Determination of low density lipoprotein cholesterol (direct method), kit
(§6) Determination of triglyceride (GP-PAP method)
(§7) Determination of high density lipoprotein (direct method), kit

[2] = tested on: Malondialdehyde (MDA) in serum; experiment: In vivo anti-lipid oxidation experiment (serum MDA, TBA method); design: inhibition rate %: concentration or dose not given beside the values; details: MAD lipid peroxidation in vivo; for inhibition rate %: relative to solvent DMSO and Chow averages; for avarage value of OD: serum, TBA method, 532 nm
Excerpt: Experimental principle: Malondialdehyde (MDA) in liposome degradation products could condense with thiobarbituric acid (TBA) to form a red product which has a maximum absorption peak at 532 nm. The spectrophotometer was used to measure the relative absorption value to calculate the antioxidant value.
Reagents: Malondialdehyde (MDA) test kit (article number: A003-1, […], Nanjing Jiancheng), glacial acetic acid of analytically pure grade.
Reagent preparations: 1) Reagent I: Reagent 1 in the kit was taken out from the refrigerator and subjected to natural warming until a transparent liquid is obtained; 2) Reagent II: 170 mL of double-distilled water was added to each bottle and mixed; 3) Reagent III: A dry powder in the kit was dissolved in 60 mL of double-distilled water at 90 to 100° C. After the dry powder was dissolved totally, 30 mL of glacial acetic acid was added and kept in dark place; 4) Standard: 10 nmol/mL tetraethoxypropane.
Experimental procedures: 1) Blank tube: To 2 mL centrifuge tube were added anhydrous ethanol (70 μl), Reagent I (70 μl), Reagent II (0.8 mL) and Reagent III (0.8 mL) in sequence; 2) Standard tube: To 2 mL centrifuge tube were added standard (70 μl), Reagent I (70 μl), Reagent 11 (0.8 mL) and Reagent III (0.8 mL) in sequence; 3) Measuring tube: To 2 mL centrifuge tube were added the serum to be tested and physiological saline (the total volume of serum and physiological saline is 70 μl), Reagent I (70 μl), Reagent II (0.8 mL) and Reagent III (0.8 mL) in sequence; 4) Control tubes: all samples are set up with corresponding control tubes. To a 2 mL centrifuge tube were added the serum to be tested and physiological saline (the total volume of serum and physiological saline is 70 μl), Reagent I (70 μl), Reagent II (0.8 mL) and 50% glacial acetic acid (0.8 mL) in sequence.
After the above reagents were added, the mixture was mixed homogenously. Then the mixture was left in the water bath at 95° C. for 60 minutes. The sample was centrifuged at 4000 rpm for 10 minutes. The supernatant was taken for the measurement of the OD value.
Experimental data processing: the MDA content in serum was calculated as follows: MDA=(OD valuemeasured−OD valuecontrol)/OD valuestandard*concentration of the standard Inhibition rate %=100−(ODsample-average value−average value of Chow)/(average value of the solvent DMSO−average value of Chow)*100

[3] = In vitro free radical inhibition test (DPPH method); details: 8 μL of 20 mmol/L compound in 1 mL DPPH 0.059 mg/mL ethanol, 60 min dark, 517 nm; for inhibition rate %: DPPH; for Relative inhibition ability on free radicals: inhibition rate of AGI1067 on DPPH defined as 100
Excerpt: 1. In Vitro Free Radical Inhibition Test (DPPH Method)
The single electron of DPPH radical has a strong absorption at […], and its alcohol solution is purple. In the presence of a free radical scavenger, the absorption of DPPH radical is weakened or disappeared for the reason that the free radical scavenger is paired with the single electron of DPPH radical, and the degree of discoloration is quantitatively related to the number of electrons DPPH radical receives. Therefore, a spectrophotometer can be used to quickly and quantitatively analyze the free radical scavenging rate of the compound.
1) 1 mL solution of DPPH in absolute ethanol (concentration: 0.059 mg/mL) was taken; 2) 8 μL of the compound to be tested (20 mmol/L) were added; 3) after mixing well, the resultant was kept in dark at room temperature for 60 minutes, 4) the absorbance of the sample at 517 nm was measured.

[4] = tested on: golden hamsters (60% high-fat food, STZ induced); experiment: Golden hamster disease model, animal model induction group (16-week-old group): blood biochemical indexes and body weight; type: in vivo; details: for change rate of blood glucose %: 0.1 mL of 6.8 mg/mL DMSO solution + 0.25 mL whole milk by gavage once a day for 2 weeks; for change rate of body weight after deduction of DMSO blank %: DMSO blank deducted; for average body weight after administration/g / change of body weight/g / change rate of body weight %: after gavage once a day for 2 weeks; for HDL % / LDL % / total cholesterol % / triglyceride %: change rate, gavage once a day for 2 weeks
Method: as §1
Animal model induction group (16-week-old group): 1) fed with 60% high-fat food for 2 weeks under standard environment; 2) STZ intraperitoneal injection twice every two days, 50 mg/kg each time; 3) After STZ induction, the golden hamsters were continuous fed for 1 week; 4) Blood was taken from the ocular venous plexus, and the initial body weight, blood glucose, total cholesterol, LDL-c, HDL-c and triglyceride were measured, and the golden hamsters were grouped in parallel according to animal biochemical indicators, 8 in each group; 5) Gavage of compounds: 0.1 mL of solution of compound (concentration: 6.8 mg/mL, DMSO solution) and 0.25 mL of whole milk were mixed evenly and administrated by gavage once a day for 2 weeks; 6) Blank control: 0.1 mL of DMSO and 0.25 mL of whole milk were mixed evenly and administrated by gavage once a day for 2 weeks; 7) Observation time: 14 days later, blood was taken from the ocular venous plexus, and the body weight, blood glucose, total cholesterol, LDL-c, HDL-c and triglyceride were measured.
as §2, §3, §4, §5, §6, §7

Row | SMILES | change rate of blood glucode % [1] | change rate of body weight after deduction of DMSO blank % [1] | change of body weight/g [1] | change rate of body weight % [1] | HDL % [1] | LDL % [1] | total cholesterol % [1] | inhibition rate % [2] | avarage value of OD [2] | inhibition rate % [3] | Relative inhibition ability on free radicals [3] | change rate of blood glucose % [4] | change rate of body weight after deduction of DMSO blank % [4] | average body weight after administration/g [4] | change of body weight/g [4] | change rate of body weight % [4] | HDL % [4] | LDL % [4] | total cholesterol % [4] | triglyceride % [4] | further results
1 | CC(O)c1cc(SSc2cc(C(C)O)c(O)c(C(C)(C)C)c2)cc(C(C)(C)C)c1O (stereo not drawn) [Compound 5, 4,4′-disulfanediyl-bis(2-(tert-butyl)-6-(1-hydroxyethyl)phenol)] | 11.5% | −13.6% | -25.0 g | −21.1% | −69.2% | −33.9% | 6.6% | 79.6% | 6.21 | 48.1% | 110.2 | 19.7% | −1.9% | 145.2 g | 10.6 g | 7.9% | 38.8% | −24.9% | −12.2% | −28.5% | triglyceride % [1]: −65.8%; average body weight at 24 weeks/g [1]: 118.1 g
2 | CC(C)(Sc1cc(C(C)(C)C)c(O)c(C(C)(C)C)c1)Sc1cc(C(C)(C)C)c(O)c(C(C)(C)CCO)c1 [Compound 8, 2,6-di-tert-butyl-4-((2-((3-(tert-butyl)-4-hydroxy-5-(4-hydroxy-2-methylbutan-2-yl)phenyl)thio)propan-2-yl)thio)phenol] | – | – | – | – | – | – | – | 59.8% | 6.98 | 37.7% | 86.5 | 48.6% | −6.1% | 149.0 g | 5.3 g | 3.7% | 60.2% | 11.1% | −7.6% | 59.1% | –
3 | CC(C)(Sc1cc(C(C)(C)C)c(O)c(C(C)(C)C)c1)Sc1cc(C(C)(C)C)c(O)c(C(C)(C)CCOC(=O)CCC(=O)O)c1 [Compound 11, 4-(3-(3-(tert-butyl)-5-((2-((3,5-di-tert-butyl-4-hydroxyphenyl)thio)propan-2-yl)thio)-2-hydroxyphenyl)-3-methylbutoxy)-4-oxobutanoic acid] | – | – | – | – | – | – | – | 44.7% | 7.56 | 19.9% | 45.5 | 35.3% | −5.5% | 140.9 g | 5.8 g | 4.3% | 49.7% | −8.1% | −0.4% | 8.7% | –
4 | CC(C)(Sc1cc(C(C)(C)C)c(O)c(C(C)(C)C)c1)Sc1cc(C(C)(C)C)c(O)c(C(C)(C)CCOC(=O)CCCCC2CCSS2)c1 (stereo not drawn) [Compound 12, 3-(3-(tert-butyl)-5-((2-((3,5-di-tert-butyl-4-hydroxyphenyl)thio)propan-2-yl)thio)-2-hydroxyphenyl)-3-methylbutyl 5-(1,2-dithiolan-3-yl)pentanoate] | −29.0% | −6.6% | -17.3 g | −14.2% | −72.1% | −32.7% | −0.3% | 64.0% | 6.82 | 36.5% | 83.6 | −17.0% | −1.6% | 135.4 g | -2.3 g | −1.6% | −3.4% | −35.8% | −30.7% | −43.0% | triglyceride % [1]: −51.7%; average body weight at 24 weeks/g [1]: 122.4 g
5 | CC(=O)Oc1ccccc1C(=O)OCCC(C)(C)c1cc(SC(C)(C)Sc2cc(C(C)(C)C)c(O)c(C(C)(C)C)c2)cc(C(C)(C)C)c1O [Compound 13, 3-(3-(tert-butyl)-5-((2-((3,5-di-tert-butyl-4-hydroxyphenyl)thio)propan-2-yl)thio)-2-hydroxyphenyl)-3-methylbutyl 2-acetoxybenzoate] | – | – | – | – | – | – | – | 53.8% | 7.21 | 34.1% | 78.2 | −3.9% | −7.8% | 136.6 g | 2.6 g | 2.0% | 57.9% | −6.7% | −9.0% | −10.0% | –
6 | CC(C)(Sc1cc(C(C)(C)C)c(O)c(C(C)(C)C)c1)Sc1cc(C(C)(C)C)c(O)c(C(C)(C)CCNC(=O)CCCCC2CCSS2)c1 (stereo not drawn) [Compound 23, N-(3-(3-(tert-butyl)-5-((2-((3,5-di-tert-butyl-4-hydroxyphenyl)thio)propan-2-yl)thio)-2-hydroxyphenyl)-3-methylbutyl)-5-(1,2-dithiolan-3-yl)pentanamide] | – | – | – | – | – | – | – | 82.6% | 6.10 | 12.1% | 27.7 | 19.5% | −3.8% | 147.2 g | 8.3 g | 6.0% | 102.1% | −11.2% | −6.4% | 21.9% | –
